Tests used:
[1] = biological target: recombinant human liver GK (Homo sapiens, UniProt P35557); assay: biochemical; parameters: Emax: dose or concentration left out as unconfirmed
Text: The glucokinase activity may be determined not by directly measuring glucose-6-phosphate but by measuring the level of Thio-NADH, which is produced when a reporter enzyme, glucose-6-phosphate dehydrogenase produces phosphogluconolactone from glucose-6-phosphate, and based on the level, the degree of glucokinase activity of the compound tested may be determined.
In this assay, used was a recombinant human liver GK, which was expressed by E. coli as a FLAG fusion protein therein and was purified by […] M2 AFFINITY GEL (Sigma).
69 μl of an assay buffer (25 mM Hepes Buffer/pH=7.2, 2 mM MgCl2, 1 mM ATP, 0.5 mM TNAD, 1 mM dithiothreitol) was put into the plate, and 1 μl of a DMSO solution of the compound or DMSO alone as a control was added thereto. Next, 20 μl of an enzyme mixture (FLAG-GK, 20 U/ml G6PDH) cooled in ice was added to it, and 10 μl of a substrate, 25 mM glucose was added to it, and the reaction was initiated (final glucose concentration=2.5 mM).
The OD level of the DMSO control was set as 100%; and the OD level of the test compound at different concentrations was determined. From the OD level at each concentration, Emax (%) and EC50 (μM) were computed and used as the index of the GK-activating potency of the compound.

[2] = Thermogravimetric analysis; type: physicochemical; details: flow of nitrogen, heating rate 10° C./min
Method: (§1) A Perkin Elmer model TG 7 or equivalent instrument is used. Experiments are performed under a flow of nitrogen and using a heating rate 10° C./min to a maximum temperature of 500° C. Approximately 10 mg of sample is added to the platinum pan. Weight/temperature data are collected automatically by the instrument. Compound 9 doesn't show obvious weight loss until 180° C.

[3] = Solid-state properties of the crystal compared to the amorphous form (from thermogravimetric analysis and X-ray powder diffraction); type: physicochemical; details: compared to amorphous form of the free benzamide of patent document 1
Method: as §1
Obtain the X-ray diffraction pattern of a finely-powdered, randomly orientated sample, using copper K alpha X-radiation from 4 to 40 theta.
Bruker powder X-ray diffractometer D8ADVANCE (at 2 kW) (bull car ray X id bull car ray X id Co., Ltd.) is used, and a powder X-ray diffraction experiment was done.

Chain of recombinant human liver GK (P35557 1-466 isoform P35557-2): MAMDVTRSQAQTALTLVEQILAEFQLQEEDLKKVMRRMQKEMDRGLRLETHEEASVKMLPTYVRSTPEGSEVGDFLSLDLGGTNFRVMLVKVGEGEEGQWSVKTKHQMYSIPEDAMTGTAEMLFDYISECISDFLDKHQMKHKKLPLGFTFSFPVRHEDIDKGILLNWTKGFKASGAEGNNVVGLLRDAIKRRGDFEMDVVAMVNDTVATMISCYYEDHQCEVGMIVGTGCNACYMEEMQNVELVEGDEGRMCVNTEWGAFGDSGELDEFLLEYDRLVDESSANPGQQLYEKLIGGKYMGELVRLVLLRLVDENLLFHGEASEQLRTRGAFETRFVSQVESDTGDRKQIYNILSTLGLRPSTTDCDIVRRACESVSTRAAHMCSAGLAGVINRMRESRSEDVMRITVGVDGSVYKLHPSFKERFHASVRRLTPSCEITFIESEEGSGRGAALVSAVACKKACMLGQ

**Q.** For `CCS(=O)(=O)c1ccc(Oc2cc(O[C@@H](C)CO)cc(C(=O)Nc3ccn(C)n3)c2)cn1.CS(=O)(=O)O` [3-(6-ethanesulfonylpyridin-3-yloxy)-5-((1S)-2-hydroxy-1-methyl-ethoxy)-N-(1-methyl-1H-pyrazol-3-yl)benzamide methanesulfonate], which EC50 [1] is on record?
**A.** 30 nM

**Q.** And the Emax [1]?
**A.** 828%

**Q.** And the “temperature until which no obvious weight loss is shown” value [2]?
**A.** ≥ 180 °C

**Q.** And the hygroscopicity [3]?
**A.** less hygroscopicity

**Q.** And the physical stability [3]?
**A.** stability physically

Reference: patent US20100222394A1, “METHOD FOR PRODUCING PYRAZOL-3-YL-BENZAMIDE DERIVATIVE” (priority 2007, published 2010)
